A short description of the data set: in vitro. Particulars: human, hela cells, % viability.

As usually defined, the viability is a read-out of living cells in per cent, often relative to untreated cells. Consider `CC1(C)CC(=O)c2c(O)cc(OCC(=O)c3ccc(Cl)c(Cl)c3)cc2O1` [CBK267573], for which the viability at 28.5 h, 10 µM is 89.1%.
For the compound `CC(C)(Cc1ccccc1)NCC(O)COc1ccc2c(c1)C1CCC2C1` (stereo not drawn) [CBK018228C], the viability at 28.5 h, 10 µM stood at 86.4%.
On to `O=C(O)c1oc2ccccc2c1CSc1ccccn1` [CBK286981], for which the viability at 28.5 h, 10 µM was found to be 89.5%.
With `Cc1ccccc1CN1CC[C@H]2[C@@H](C1)[C@H](c1ccsc1)CN2C(=O)c1ccc(F)cc1` [CBK285638], the viability at 28.5 h, 10 µM is 102%.
`CN1CCN(CC2(Cn3ccnc3-c3ccc(C(=O)O)cc3)CC2)CC1` [CBK307641]: the viability at 28.5 h, 10 µM amounted to 75.1%.
The same measure, in the same setting: the result for `CCCc1[nH]nc(O)c1C(=O)c1c(Cl)cccc1Cl` [CBK093553] reads 95.7%.
For the compound `COc1ccc(CCn2nc(C(=O)O)c3ccccc32)cc1` [CBK093525], the viability at 28.5 h, 10 µM (bulk resorufin, single well) is 85%.
Regarding `N=C1NC(=O)/C(=C/c2ccc(OC(=O)c3cccc([N+](=O)[O-])c3)cc2)S1` [CBK263606], the viability at 28.5 h, 10 µM was determined as 100%.
As to `CSc1ncc(CNC(=O)C2CCOc3ccccc3C2)n1C` (stereo not drawn) [CBK307611], the viability at 28.5 h, 10 µM was 82.5%.
Take `Cn1cc(-c2ccc(C3CCCCN3Cc3ccnc4ccccc34)cn2)cn1` (stereo not drawn) [CBK285672]: the viability at 28.5 h, 10 µM is 93.3%.
Still for that read-out and setting: the result for `CCCn1cnc2cc(NC(=O)Cn3cccc(C(=O)NC4CCCCC4)c3=O)ccc21` [CBK286075] reads 93%.
For the compound `Cc1ccc(CNC(=O)Cn2nnc(-c3ccc(CN4CCC(S(C)(=O)=O)C4)cc3)n2)cc1` (stereo not drawn) [CBK155407T], the viability at 28.5 h, 10 µM was 91.7%.
Regarding `Cc1cc(NC(=O)N2CCN(CCNC(=O)C3CCCC3)CC2)no1` [CBK305064], the viability at 28.5 h, 10 µM worked out at 100%.
Same read-out and setting: the result for `Cc1noc(C)c1C(=O)N1CCCC(c2nc(C)n3ccsc23)C1` (stereo not drawn) [CBK285211] reads 103%; that for `Cc1cccc(NC(=O)CSc2ncnc3sc4c(c23)CCC(C)C4)c1` (stereo not drawn) [CBK265738], 102%; that for `CS(=O)(=O)c1ccc(-c2nccnc2NCc2cccnc2)cc1` [CBK036977], 104%.
Same read-out and setting: the result for `CCN1CCC2(CC1)NC(=O)Cc1cc(OC)c(OC)c(OC)c12` [CBK039868] reads 97.6%; that for `O=S(=O)(c1cccc(S(=O)(=O)N2CCOCC2)c1)c1ccc(Cl)c(S(=O)(=O)N2CCOCC2)c1` [CBK261260], 104%; that for `COc1ccccc1-c1cnc(N)c(NCc2ccccc2)n1` [CBK063357], 94.3%.
On the same count and under the same terms, the result for `COc1ncccc1CNC(=O)Cn1ccc(=O)[nH]c1=O` [CBK305596] reads 99.9%; that for `CN1CCN(c2nc(-c3cccc4ncccc34)cnc2N)CC1` [CBK063465], 107%; that for `O=C(Nc1ccc(I)cc1C(=O)NCCN1CCOCC1)c1ccco1` [CBK266211], 100%.
Consider `O=C1CCN(Cc2ccccc2)CCN1C(=O)c1cccs1` [CBK284828], for which the viability at 28.5 h, 10 µM was found to be 88.8%.
Turning to `Cc1ccc(OCCCN2CCN(C)CC2)c(Cc2ccccc2)c1` [CBK269650C], the viability at 28.5 h, 10 µM worked out at 104%.
On the same count and under the same terms, the result for `O=C1C2CCCCN2C(=O)N1c1cccnc1` (stereo not drawn) [CBK162359] reads 114%.
Same read-out and setting: the result for `O=C(O)C1C2C=CC3(CN(C4CCCCC4)C(=O)C13)O2` (stereo not drawn) [CBK287248] reads 84.8%.
On the same count and under the same terms, the result for `CCOCCn1c(N2CCCC(C)C2)nc2c1c(=O)[nH]c(=O)n2C` (stereo not drawn) [CBK304304] reads 85.1%; that for `CCn1cc(C(=O)N2CCc3sccc3C2)c(=O)c2ccc(C)nc21` [CBK305006], 94.3%.
On to `Fc1ccc(OCc2nnn[nH]2)c(F)c1` [CBK269473], for which the viability at 28.5 h, 10 µM came to 99.9%.
On the same count and under the same terms, the result for `Cc1ccc2nc(Nc3nc(C)cc(C)n3)[nH]c2c1` [CBK263634] reads 97.9%.
Turning to `O=C(NCc1nnc(-c2cccs2)o1)C(c1ccccc1)c1ccccc1` [CBK286294], the viability at 28.5 h, 10 µM was found to be 92.6%.
The same measure, in the same setting: the result for `O=C1CC(c2ccccc2)CC(=O)N1c1ccc(N2CCOCC2)cc1` [CBK291191] reads 108%; that for `COc1cccc(NC(=O)c2sc(N)nc2-c2ccccc2)c1` [CBK072023], 95.2%.
Regarding `O=C(CCn1c(C(F)(F)F)cc2cccnc21)NCc1ccncc1` [CBK284841], the viability at 28.5 h, 10 µM was 90.5%.
Take `O=C(c1cccs1)N1CCC(n2c(=O)oc3ccccc32)CC1` [CBK284347]: the viability at 28.5 h, 10 µM was 88.2%.
For `O=c1[nH]cc(-c2ccccc2)cc1CNc1cccc2ncccc12` [CBK284771], the viability at 28.5 h, 10 µM was found to be 77.1%.
Still for that read-out and setting: the result for `CCN(CC)c1ccc(C(=O)CN2CCN(c3nccnc3OCCN3CCOCC3)CC2)cc1` [CBK082898T] reads 97.4%; that for `O=C(OCc1ccccc1)N1CCC(n2ccn(C(=O)CCC3CCCC3)c2=O)CC1` [CBK106670], 86.7%.
Still for that read-out and setting: the result for `COc1ncc(-c2nccnc2NCc2cccc(Cl)c2)c(OC)n1` [CBK037990] reads 90%; that for `O=C(c1cccs1)N(Cc1ccco1)Cc1cc2ccccc2[nH]c1=O` [CBK269602], 104%.
Still for that read-out and setting: the result for `Nc1ccc(S(=O)(=O)c2ccc(-n3c(=O)c4cc5c(=O)n(-c6ccc(S(=O)(=O)c7ccc(N)cc7)cc6)c(=O)c5cc4c3=O)cc2)cc1` [CBK261490] reads 92%.
Turning to `CCC12CN3CC(CC)(CN(C1)C3c1c(C)[nH]c3ccccc13)C2=O` (stereo not drawn) [CBK265547], the viability at 28.5 h, 10 µM came to 89.4%.
In the case of `COc1ccc(-c2n[nH]c(=S)n2CC(=O)Nc2nc(-c3ccc(C)cc3C)cs2)cc1` [CBK295316], the viability at 28.5 h, 10 µM worked out at 96.9%.
On to `COCCC(=O)NCC1Cc2cc(F)cc(-c3ccc(C(C)=O)s3)c2O1` (stereo not drawn) [CBK306742], for which the viability at 28.5 h, 10 µM was found to be 109%.
In the case of `COCCNc1cc(-c2ccccc2N(C)C)ncn1` [CBK090790], the viability at 28.5 h, 10 µM is 109%.
Take `CC(C)(C)OC(=O)N1CCC(NCCc2ccccn2)C1` (stereo not drawn) [CBK304839]: the viability at 28.5 h, 10 µM was determined as 94.2%.
Still for that read-out and setting: the result for `NC(=O)CN1CCC(Oc2cncc(OCC3COc4ccccc4O3)n2)C1` (stereo not drawn) [CBK084372] reads 98.2%.
In the case of `Cc1ccc(C)c(NC(=O)N2CCC3(CCc4nccc(C)c4C3=O)CC2)c1` [CBK059554], the viability at 28.5 h, 10 µM is 91.6%.
On the same count and under the same terms, the result for `CC(=O)c1ccc(NC(=O)Cn2cnc3c(sc4ncccc43)c2=O)cc1` [CBK287773] reads 95.4%.
As to `CC(NC(=O)C1CCN(CCCN(C)S(C)(=O)=O)CC1)c1cccc2ccccc12` (stereo not drawn) [CBK148651], the viability at 28.5 h, 10 µM worked out at 104%.
On the same count and under the same terms, the result for `CCc1nn(CC(=O)N2CCCC2)c(=O)c2cc3sc(C)cc3n12` [CBK284122] reads 82.9%; that for `Cc1cc(C)cc(C(=O)N2CCCC(C(=O)N3CCN(c4nccs4)CC3)C2)c1` (stereo not drawn) [CBK298307], 95.1%; that for `CC(C)NS(=O)(=O)c1ccc(NS(=O)(=O)c2ccc(F)c(C(=O)O)c2)cc1` [CBK297533], 93.6%.
Turning to `Cc1cc(CNS(=O)(=O)N2CCCC2)c2[nH]c(C)c(C)c2c1` [CBK282772], the viability at 28.5 h, 10 µM came to 95.1%.
As for `CN(C)CCNC(=O)c1ccc(-c2cnc3[nH]c(=O)n(CC4CC4)c3n2)cc1` [CBK064578], the viability at 28.5 h, 10 µM was found to be 94.6%.
The same measure, in the same setting: the result for `CC(=O)Nc1ccc(-c2cccc(COC3CCN(C(=O)Cc4c[nH]cn4)CC3)c2)cc1` [CBK149497] reads 103%; that for `CN1CCc2c(sc3c2C(=O)NC(c2ccco2)N3)C1` (stereo not drawn) [CBK287277], 99.4%; that for `Cc1nc2c(c(=O)[nH]1)CC[C@@H]1CN(C(=O)CCc3ccccc3)C[C@H]21` [CBK284414], 95.9%.
For `CN1CCN(CCOC(=O)N2CCN(c3cccc(C(F)(F)F)c3)CC2)CC1` [CBK115940C], the viability at 28.5 h, 10 µM was found to be 103%.
The same measure, in the same setting: the result for `CN(Cc1ccccc1)c1nccnc1-c1ccc(CO)cc1` [CBK038067] reads 101%; that for `Cn1nc(NC(=O)CC(C)(C)CC(=O)O)c2c(F)cccc21` [CBK057122], 86.3%; that for `CS(=O)(=O)Nc1nn(-c2ccc(NC(=O)c3ccno3)cc2)c2ccccc12` [CBK048591], 99.5%.
`COc1cc(NC(=S)NCCN2CCOCC2)c(OC)cc1Cl` [CBK265888]: the viability at 28.5 h, 10 µM is 101%.
Still for that read-out and setting: the result for `COc1cccc(CN2C(=O)COc3ccc(C(=O)c4cccs4)cc32)c1` [CBK286412] reads 96.1%.
Take `O=C1C=C(c2ccc([N+](=O)[O-])cc2)Nc2nonc2N1` [CBK261487]: the viability at 28.5 h, 10 µM worked out at 89.4%.
On the same count and under the same terms, the result for `O=C(NCc1ccc(-c2nc3ncccc3o2)cc1)c1ccc(F)cc1` [CBK270182] reads 91.3%; that for `Oc1ccc(-n2ncc(-c3ccc(Cl)cc3)n2)cc1` [CBK112794], 86.8%.
Regarding `CN1CCN(Cc2n[nH]c(=S)n2-c2cccc(C#N)c2)CC1` [CBK015465], the viability at 28.5 h, 10 µM was determined as 112%.
Same read-out and setting: the result for `COc1cc(=O)n(C)c(C)n1` [CBK007924] reads 91%.
Still for that read-out and setting: the result for `O=C1c2cccc3cccc(c23)C(=O)N1CCN1CCN(CC(O)COc2ccc(Cl)cc2Cl)CC1` (stereo not drawn) [CBK264881] reads 94.5%; that for `NC(=O)C1CCN(C(=O)Cc2csc(COc3ccc(Cl)cc3)n2)CC1` [CBK304519], 81.9%.
Still for that read-out and setting: the result for `COc1ccc(Nc2cccc(-c3cnc(OC)nc3OC)n2)cc1` [CBK036825] reads 89.6%; that for `NC(=O)C1(N2CCCCC2)CCN(C(=O)CSc2nnc(-c3ccccc3)n2C2CCCCC2)CC1` [CBK266219], 101%; that for `COCC(C)NCc1cc(-c2ccc(Cl)cc2)c[nH]c1=O` (stereo not drawn) [CBK284726], 79%.
In the case of `Cc1cc(CSc2ccccc2)ccc1NC(=O)/C=C/c1cccc([N+](=O)[O-])c1` [CBK264687], the viability at 28.5 h, 10 µM worked out at 111%.
On to `O=C(c1cccc(-c2cc3ccccc3oc2=O)c1)N1CCN(c2ccc([N+](=O)[O-])cc2Cl)CC1` [CBK269704], for which the viability at 28.5 h, 10 µM turned out to be 101%.
Same read-out and setting: the result for `Cc1ccc(NC(=O)c2cc(C)[nH]n2)c(C)n1` [CBK200387] reads 83.8%; that for `O=C(O)CCC(=O)N1CCC(Cn2cncn2)(C2CCCCC2)CC1` [CBK136809], 94.8%.

For the origin of these results see publication PMC12040169 (PLOS Biology, 2025).
